Measured values: PMC6917776, “Discovery of a chemical probe for PRDM9” (Nature Communications, 2019)

Columns and labels:
Assay in all cases: CelltiterGlo viability cell assay
Assay type in all cases: cell-based
HCC1806 = tested on: HCC1806
Method: (§1) Supplementary Figure 13. […] Viability of
(§2) (a) Multiple Myeloma lines and (b) Breast Cancer cell lines following 3 or 6 days treatment with […]
(§3) manufacturer’s instructions as described in the Supplementary methods. Data are normalized to DMSO control. N=3 biological replicates, +/- SEM. Source data are provided as a Source Data […]
(§4) CelltiterGlo viability cell assay
(§5) Cells were seeded in 96 well plates at per-well densities of 10000 (MDA-MB436, ATCC-HTB130), 15000 (8226, kind gift from Rodger Tiedemann, Princess Margaret Cancer Centre), […]
(§6) kind gift from Rodger Tiedemann, Princess Margaret Cancer Centre) and 50000 (CAL851, kind gift from Mathieu Lupien, Princess Margaret Cancer Centre) and were treated at increasing concentrations of compounds ranging from 0.01 μM to 30 μM and assessed for proliferation using CelltiterGlo (Promega) following manufacturer’s instructions, as readout on days 3 and 6 as indicated. All cell lines were mycoplasma negative, as determined by MycoAlert™ Mycoplasma Detection Kit(Lonza). […]

MDA-MB-436 = tested on: MDA-MB-436
Method: as §1, §2, §3, §4, §5, §6

SKMM2 = tested on: SKMM2
Method: as §1, §2, §3, §4, §5, §6

## COc1cc(OC)cc(-c2noc(N3CCN(C)C4(CCN(c5ccccc5)CC4)C3)n2)c1 [MRK-740N]
HCC1806; HCC1806, 3 day, 0.01 uM
  viability Average: 114.56
  viability Replicate 1: 108.66
  viability Replicate 2: 106.14
  viability Replicate 3: 128.88
HCC1806; HCC1806, 3 day, 0.03 uM
  viability Average: 112.72
  viability Replicate 1: 107.72
  viability Replicate 2: 100.89
  viability Replicate 3: 129.55
HCC1806; HCC1806, 3 day, 0.1 uM
  viability Average: 114.82
  viability Replicate 1: 110.69
  viability Replicate 2: 103.88
  viability Replicate 3: 129.88
HCC1806; HCC1806, 3 day, 0.3 uM
  viability Average: 114.56
  viability Replicate 1: 110.72
  viability Replicate 2: 101.60
  viability Replicate 3: 131.35
HCC1806; HCC1806, 3 day, 1 uM
  viability Average: 117.58
  viability Replicate 1: 111.18
  viability Replicate 2: 107.64
  viability Replicate 3: 133.91
HCC1806; HCC1806, 3 day, 3 uM
  viability Average: 114.75
  viability Replicate 1: 110.32
  viability Replicate 2: 101.81
  viability Replicate 3: 132.12
HCC1806; HCC1806, 3 day, 9.5 uM
  viability Average: 100.22
  viability Replicate 1: 94.76
  viability Replicate 2: 91.96
  viability Replicate 3: 113.95
HCC1806; HCC1806, 3 day, 30 uM
  viability Average: 31.36
  viability Replicate 1: 29.97
  viability Replicate 2: 27.69
  viability Replicate 3: 36.41
HCC1806; HCC1806, 6 day, 0.03 uM
  viability Average: 104.14
  viability Replicate 1: 102.41
  viability Replicate 2: 102.60
  viability Replicate 3: 107.42
HCC1806; HCC1806, 6 day, 0.1 uM
  viability Average: 107.97
  viability Replicate 1: 107.96
  viability Replicate 2: 108.22
  viability Replicate 3: 107.74
HCC1806; HCC1806, 6 day, 0.3 uM
  viability Average: 112.99
  viability Replicate 1: 109.14
  viability Replicate 2: 116.56
  viability Replicate 3: 113.26
HCC1806; HCC1806, 6 day, 1 uM
  viability Average: 115.10
  viability Replicate 1: 111.79
  viability Replicate 2: 117.79
  viability Replicate 3: 115.71
HCC1806; HCC1806, 6 day, 3 uM
  viability Average: 114.65
  viability Replicate 1: 112.70
  viability Replicate 2: 114.15
  viability Replicate 3: 117.09
HCC1806; HCC1806, 6 day, 9.5 uM
  viability Average: 110.91
  viability Replicate 1: 107.82
  viability Replicate 2: 111.79
  viability Replicate 3: 113.11
HCC1806; HCC1806, 6 day, 30 uM
  viability Average: 35.99
  viability Replicate 1: 27.63
  viability Replicate 2: 38.19
  viability Replicate 3: 42.14
MDA-MB-436; MDA MB436, 3 day, 0.01 uM
  viability Average: 104.47
  viability Replicate 1: 104.85
  viability Replicate 2: 108.92
  viability Replicate 3: 99.63
MDA-MB-436; MDA MB436, 3 day, 0.03 uM
  viability Average: 103.60
  viability Replicate 1: 101.98
  viability Replicate 2: 106.92
  viability Replicate 3: 101.91
MDA-MB-436; MDA MB436, 3 day, 0.1 uM
  viability Average: 104.90
  viability Replicate 1: 108.03
  viability Replicate 2: 99.50
  viability Replicate 3: 107.16
MDA-MB-436; MDA MB436, 3 day, 0.3 uM
  viability Average: 109.23
  viability Replicate 1: 113.13
  viability Replicate 2: 103.55
  viability Replicate 3: 111.02
MDA-MB-436; MDA MB436, 3 day, 1 uM
  viability Average: 109.50
  viability Replicate 1: 114.19
  viability Replicate 2: 107.46
  viability Replicate 3: 106.85
MDA-MB-436; MDA MB436, 3 day, 3 uM
  viability Average: 108.81
  viability Replicate 1: 105.69
  viability Replicate 2: 108.01
  viability Replicate 3: 112.73
MDA-MB-436; MDA MB436, 3 day, 9.5 uM
  viability Average: 105.69
  viability Replicate 1: 111.14
  viability Replicate 2: 101.16
  viability Replicate 3: 104.77
MDA-MB-436; MDA MB436, 3 day, 30 uM
  viability Average: 65.33
  viability Replicate 1: 67.81
  viability Replicate 2: 62.64
  viability Replicate 3: 65.53
MDA-MB-436; MDA MB436, 6 day, 0.01 uM
  viability Average: 103.60
  viability Replicate 1: 113.45
  viability Replicate 2: 100.02
  viability Replicate 3: 97.33
MDA-MB-436; MDA MB436, 6 day, 0.03 uM
  viability Average: 104.88
  viability Replicate 1: 112.01
  viability Replicate 2: 99.73
  viability Replicate 3: 102.91
MDA-MB-436; MDA MB436, 6 day, 0.1 uM
  viability Average: 102.74
  viability Replicate 1: 107.88
  viability Replicate 2: 92.08
  viability Replicate 3: 108.25
MDA-MB-436; MDA MB436, 6 day, 0.3 uM
  viability Average: 105.71
  viability Replicate 1: 111.04
  viability Replicate 2: 94.90
  viability Replicate 3: 111.19
MDA-MB-436; MDA MB436, 6 day, 1 uM
  viability Average: 105.76
  viability Replicate 1: 115.22
  viability Replicate 2: 95.99
  viability Replicate 3: 106.08
MDA-MB-436; MDA MB436, 6 day, 3 uM
  viability Average: 103.68
  viability Replicate 1: 104.50
  viability Replicate 2: 94.30
  viability Replicate 3: 112.23
MDA-MB-436; MDA MB436, 6 day, 9.5 uM
  viability Average: 88.40
  viability Replicate 1: 98.62
  viability Replicate 2: 74.13
  viability Replicate 3: 92.44
MDA-MB-436; MDA MB436, 6 day, 30 uM
  viability Average: 37.17
  viability Replicate 1: 41.30
  viability Replicate 2: 30.92
  viability Replicate 3: 39.29
SKMM2; SKMM2, 3 day, 0.01 uM
  viability Average: 99.67
  viability Replicate 1: 98.81
  viability Replicate 2: 100.27
  viability Replicate 3: 99.94
SKMM2; SKMM2, 3 day, 0.03 uM
  viability Average: 99.81
  viability Replicate 1: 100.19
  viability Replicate 2: 99.28
  viability Replicate 3: 99.96
SKMM2; SKMM2, 3 day, 0.1 uM
  viability Average: 99.75
  viability Replicate 1: 99.33
  viability Replicate 2: 101.27
  viability Replicate 3: 98.65
SKMM2; SKMM2, 3 day, 0.3 uM
  viability Average: 100.91
  viability Replicate 1: 100.74
  viability Replicate 2: 101.32
  viability Replicate 3: 100.69
SKMM2; SKMM2, 3 day, 1 uM
  viability Average: 99.32
  viability Replicate 1: 99.24
  viability Replicate 2: 100.37
  viability Replicate 3: 98.34
SKMM2; SKMM2, 3 day, 3 uM
  viability Average: 97.16
  viability Replicate 1: 96.17
  viability Replicate 2: 98.52
  viability Replicate 3: 96.79
SKMM2; SKMM2, 3 day, 9.5 uM
  viability Average: 95.36
  viability Replicate 1: 96.79
  viability Replicate 2: 94.04
  viability Replicate 3: 95.26
SKMM2; SKMM2, 3 day, 30 uM
  viability Average: 58.34
  viability Replicate 1: 67.94
  viability Replicate 2: 41.11
  viability Replicate 3: 65.95
SKMM2; SKMM2, 6 day, 0.01 uM
  viability Average: 99.21
  viability Replicate 1: 91.53
  viability Replicate 2: 105.08
  viability Replicate 3: 101.01
SKMM2; SKMM2, 6 day, 0.03 uM
  viability Average: 96.26
  viability Replicate 1: 90.23
  viability Replicate 2: 98.46
  viability Replicate 3: 100.08
SKMM2; SKMM2, 6 day, 0.1 uM
  viability Average: 98.07
  viability Replicate 1: 90.96
  viability Replicate 2: 102.71
  viability Replicate 3: 100.56
SKMM2; SKMM2, 6 day, 0.3 uM
  viability Average: 97.57
  viability Replicate 1: 90.30
  viability Replicate 2: 102.21
  viability Replicate 3: 100.20
SKMM2; SKMM2, 6 day, 1 uM
  viability Average: 94.68
  viability Replicate 1: 89.98
  viability Replicate 2: 95.60
  viability Replicate 3: 98.45
SKMM2; SKMM2, 6 day, 3 uM
  viability Average: 95.79
  viability Replicate 1: 90.06
  viability Replicate 2: 96.19
  viability Replicate 3: 101.13
SKMM2; SKMM2, 6 day, 9.5 uM
  viability Average: 94.06
  viability Replicate 1: 88.71
  viability Replicate 2: 96.00
  viability Replicate 3: 97.48
SKMM2; SKMM2, 6 day, 30 uM
  viability Average: 64.98
  viability Replicate 1: 81.69
  viability Replicate 2: 45.98
  viability Replicate 3: 67.29
